{
  "source": "patent US20260259169A1",
  "about": "“BETA-LACTAMASE SUBSTRATE COMPOUNDS AND ELECTROCHEMICAL DETECTION METHODS USING THEM” (priority 2023, published 2026)",
  "key": {"OXA-48 [1]": {"system": "OXA-48", "test": "Reactivity with recombinant enzyme, amperometric", "type": "biochemical", "conditions": "class D carbapenemase, protein; CF3 compound 2.4 mM, HMRZ-86 1.2 mM; 10 minutes at 37° C."}, "IMP-31": {"system": "IMP-31", "test": "Reactivity with recombinant enzyme, amperometric", "type": "biochemical", "conditions": "class B metallo-beta-lactamase, protein; CF3 compound 2.4 mM, HMRZ-86 1.2 mM; 10 minutes at 37° C."}, "IMP-61": {"system": "IMP-61", "test": "Reactivity with recombinant enzyme, amperometric", "type": "biochemical", "conditions": "class B metallo-beta-lactamase, protein; CF3 compound 2.4 mM, HMRZ-86 1.2 mM; 10 minutes at 37° C."}, "OXA-51": {"system": "OXA-51", "test": "Reactivity with recombinant enzyme, amperometric", "type": "biochemical", "conditions": "class D carbapenemase, protein; CF3 compound 2.4 mM, HMRZ-86 1.2 mM; 10 minutes at 37° C."}, "IMP-1": {"target": "IMP-1 (Serratia marcescens, UniProt P52699)", "test": "Reactivity with recombinant enzyme, amperometric", "type": "biochemical", "conditions": "class B metallo-beta-lactamase, protein; CF3 compound 2.4 mM, HMRZ-86 1.2 mM; 10 minutes at 37° C."}, "[2]": {"test": "NMR stability study in relation to a 22 mM succinate buffer reference", "type": "physicochemical", "experimental": "(§1) The stability of the beta-lactamase substrate compounds over time at different temperatures was tested the reference HMRZ-86 of example 1 (at 1.2 mM) and the beta-lactamase substrate compound with R being 2-nitro-4-cyano of Example 1 (at 2.4 mM).\nThe stability of both beta-lactamase substrate compounds was also tested in relation to a 22 mM succinate buffer reference. […] Contrary to the dimethylformamide (DMF) reference, the degradation in relation to the succinate buffer was similar for both substrate compounds, with the first degradation starting after 2 weeks at both temperatures."}, "CTX-M-25": {"target": "CTX-M-25 (Escherichia coli, UniProt Q8KSA6)", "test": "Reactivity with recombinant enzyme, amperometric", "type": "biochemical", "conditions": "class A ESBL, protein; CF3 compound 2.4 mM, HMRZ-86 1.2 mM; 10 minutes at 37° C."}, "CTX-M-2": {"target": "CTX-M-2 (Salmonella typhimurium, UniProt P74841)", "test": "Reactivity with recombinant enzyme, amperometric", "type": "biochemical", "conditions": "class A ESBL, protein; CF3 compound 2.4 mM, HMRZ-86 1.2 mM; 10 minutes at 37° C."}, "CTX-M-15": {"target": "CTX-M-15 (Escherichia coli, UniProt Q9EXV5)", "test": "Reactivity with recombinant enzyme, amperometric", "type": "biochemical", "conditions": "class A ESBL, protein; CF3 compound 2.4 mM, HMRZ-86 1.2 mM; 10 minutes at 37° C."}, "NDM-1": {"target": "NDM-1 (Klebsiella pneumoniae, UniProt C7C422)", "test": "Reactivity with recombinant enzyme, amperometric", "type": "biochemical", "conditions": "class B metallo-beta-lactamase, protein; CF3 compound 2.4 mM, HMRZ-86 1.2 mM; 10 minutes at 37° C."}, "OXA-48 [3]": {"system": "OXA-48", "test": "Amperometric detection of beta-lactamase type producing bacteria strains", "type": "cell-based", "conditions": "6.0 mM substrate, HMRZ-86 1.2 mM; qualitative", "experimental": "(§2) The possibility to detect different beta-lactamase type producing bacteria strains was also tested. As reference, a reference medium comprising 1.2 mM beta-lactamase substrate compound HMRZ-86 was prepared as well."}, "OXA-40": {"system": "OXA-40", "test": "Amperometric detection of beta-lactamase type producing bacteria strains", "type": "cell-based", "conditions": "6.0 mM substrate, HMRZ-86 1.2 mM; qualitative", "experimental": "as §2"}, "OXA-58 [4]": {"system": "OXA-58", "test": "Amperometric detection of beta-lactamase type producing bacteria strains", "type": "cell-based", "conditions": "6.0 mM substrate, HMRZ-86 1.2 mM; qualitative", "experimental": "as §2"}, "CTXM": {"system": "CTXM", "test": "Amperometric detection of beta-lactamase type producing bacteria strains", "type": "cell-based", "conditions": "6.0 mM substrate, HMRZ-86 1.2 mM; qualitative", "experimental": "as §2"}, "OXA-163": {"system": "OXA-163", "conditions": "class D carbapenemase, protein; CF3 compound 2.4 mM, HMRZ-86 1.2 mM; 10 minutes at 37° C."}, "[5]": {"test": "NMR stability study in relation to a dimethylformamide (DMF) reference", "type": "physicochemical", "conditions": "for degradation: DMF reference", "experimental": "More particularly, when the degradation is determined by means of NMR measurements, a first sample comprising the beta-lactamase substrate compound according to the present disclosure and a second sample comprising the reference, e.g. DMF, are heated or cooled to a predefined temperature, after which the NMR measurement is performed on both samples (measurement at time=0). The same measurement is repeated on the samples after a predefined time (time=x), while their temperature is kept constant at the predefined temperature from time=0 to time=x. The difference of the integration of NMR measurement signals of both samples is determined by comparing between time=0 and time=x, thereby allowing to define the degree (percentage) of degradation of the beta-lactamase substrate compound at time=x.\nas §1\nThe stability was tested by a NMR stability study. The degradation was measured by measuring the evolution of the integration of NMR measurement signals of the molecule in relation to a dimethylformamide (DMF) reference. The stability of the beta-lactamase substrate compound is expressed by the percentage of degradation in function of time.\nThe stability of all 3 beta-lactamase substrate compounds (R being 4-cyanophenyl, group β being H, CH3 and CF3, respectively), as well as the beta-lactamase having the same group R and a group β according to formula II was tested at 20° C. in DMF as reference."}, "VIM-11": {"system": "VIM-11", "test": "Reactivity with recombinant enzyme, amperometric", "type": "biochemical", "conditions": "class B metallo-beta-lactamase, protein; CF3 compound 2.4 mM, HMRZ-86 1.2 mM; 10 minutes at 37° C."}, "IMP-16": {"system": "IMP-16", "test": "Reactivity with recombinant enzyme, amperometric", "type": "biochemical", "conditions": "class B metallo-beta-lactamase, protein; CF3 compound 2.4 mM, HMRZ-86 1.2 mM; 10 minutes at 37° C."}, "IMP-11": {"system": "IMP-11", "test": "Reactivity with recombinant enzyme, amperometric", "type": "biochemical", "conditions": "class B metallo-beta-lactamase, protein; CF3 compound 2.4 mM, HMRZ-86 1.2 mM; 10 minutes at 37° C."}, "VIM-13": {"system": "VIM-13", "test": "Reactivity with recombinant enzyme, amperometric", "type": "biochemical", "conditions": "class B metallo-beta-lactamase, protein; CF3 compound 2.4 mM, HMRZ-86 1.2 mM; 10 minutes at 37° C."}, "OXA-58 [6]": {"system": "OXA-58", "test": "Reactivity with recombinant enzyme, amperometric", "type": "biochemical", "conditions": "class D carbapenemase, protein; CF3 compound 2.4 mM, HMRZ-86 1.2 mM; 10 minutes at 37° C."}, "OXA-23": {"target": "OXA-23 (Acinetobacter baumannii, UniProt Q9L4P2)", "test": "Reactivity with recombinant enzyme, amperometric", "type": "biochemical", "conditions": "class D carbapenemase, protein; CF3 compound 2.4 mM, HMRZ-86 1.2 mM; 10 minutes at 37° C."}},
  "data": [
    {"molecule": "CC(C)(ON=C(C(=O)N[C@@H]1C(=O)N2C(C(=O)O)=C(C=Cc3ccc([N+](=O)[O-])cc3[N+](=O)[O-])CS[C@H]12)c1csc(N)n1)C(=O)O.O=C(O)C(F)(F)F", "note": "[HMRZ-86, reference compound]", "values": [
      {"measurement": "reactivity (detection)", "setting": "OXA-48 [1]", "result": "Detected"},
      {"measurement": "reactivity (detection)", "setting": "IMP-31", "result": "Detected"},
      {"measurement": "reactivity (detection)", "setting": "IMP-61", "result": "Detected"},
      {"measurement": "reactivity (detection)", "setting": "OXA-51", "result": "Not detected"},
      {"measurement": "reactivity (detection)", "setting": "IMP-1", "result": "Detected"},
      {"measurement": "time at which the first degradation starts", "setting": "[2]; 4° C.", "result": 2, "unit": "weeks"},
      {"measurement": "time at which the first degradation starts", "setting": "[2]; 20° C.", "result": 2, "unit": "weeks"},
      {"measurement": "reactivity (detection)", "setting": "CTX-M-25", "result": "Detected"},
      {"measurement": "reactivity (detection)", "setting": "CTX-M-2", "result": "Detected"},
      {"measurement": "reactivity (detection)", "setting": "CTX-M-15", "result": "Detected"},
      {"measurement": "reactivity (detection)", "setting": "NDM-1", "result": "Detected"},
      {"measurement": "detection (oxidation current)", "setting": "OXA-48 [3]", "result": "capable of detecting"},
      {"measurement": "detection (oxidation current)", "setting": "OXA-40", "result": "does not detect"},
      {"measurement": "detection (oxidation current)", "setting": "OXA-58 [4]", "result": "does not detect"},
      {"measurement": "detection (oxidation current)", "setting": "CTXM", "result": "capable of detecting"},
      {"measurement": "reactivity (detection)", "setting": "OXA-163", "result": "Detected"},
      {"measurement": "degradation", "setting": "[5]; 4° C., after 1 day", "result": "over 50%"},
      {"measurement": "degradation", "setting": "[5]; 20° C., after 1 week", "result": "~60", "unit": "%"},
      {"measurement": "degradation", "setting": "[5]; 20° C., after 18 weeks", "result": "over 90%"},
      {"measurement": "degradation", "setting": "[5]; 20° C., after 1 day", "result": "~60", "unit": "%"},
      {"measurement": "degradation over time", "setting": "[5]; temperatures between 4° C. and 20° C.", "result": "significant degradation over time"},
      {"measurement": "reactivity (detection)", "setting": "VIM-11", "result": "Detected"},
      {"measurement": "reactivity (detection)", "setting": "IMP-16", "result": "Detected"},
      {"measurement": "reactivity (detection)", "setting": "IMP-11", "result": "Detected"},
      {"measurement": "reactivity (detection)", "setting": "VIM-13", "result": "Detected"},
      {"measurement": "reactivity (detection)", "setting": "OXA-58 [6]", "result": "Not detected"},
      {"measurement": "reactivity (detection)", "setting": "OXA-23", "result": "Not detected"}
    ]},
    {"molecule": "N#Cc1ccc(C=CC2=C(C(=O)O)N3C(=O)C(NC(=O)C(F)(F)F)C3SC2)cc1", "note": "(stereo not drawn) [CF3]", "values": [
      {"measurement": "reactivity (detection)", "setting": "OXA-48 [1]", "result": "Detected"},
      {"measurement": "reactivity (detection)", "setting": "IMP-31", "result": "Detected"},
      {"measurement": "reactivity (detection)", "setting": "IMP-61", "result": "Detected"},
      {"measurement": "reactivity (detection)", "setting": "OXA-51", "result": "Detected"},
      {"measurement": "reactivity (detection)", "setting": "IMP-1", "result": "Detected"},
      {"measurement": "reactivity (detection)", "setting": "CTX-M-25", "result": "Detected"},
      {"measurement": "reactivity (detection)", "setting": "CTX-M-2", "result": "Detected"},
      {"measurement": "reactivity (detection)", "setting": "CTX-M-15", "result": "Detected"},
      {"measurement": "reactivity (detection)", "setting": "NDM-1", "result": "Detected"},
      {"measurement": "detection (oxidation current)", "setting": "OXA-48 [3]", "result": "capable of detecting"},
      {"measurement": "detection (oxidation current)", "setting": "OXA-40", "result": "capable of detecting"},
      {"measurement": "detection (oxidation current)", "setting": "OXA-58 [4]", "result": "capable of detecting"},
      {"measurement": "detection (oxidation current)", "setting": "CTXM", "result": "capable of detecting"},
      {"measurement": "reactivity (detection)", "setting": "OXA-163", "result": "Detected"},
      {"measurement": "time of first signs of degradation", "setting": "[5]", "result": 1, "unit": "weeks"},
      {"measurement": "reactivity (detection)", "setting": "VIM-11", "result": "Detected"},
      {"measurement": "reactivity (detection)", "setting": "IMP-16", "result": "Detected"},
      {"measurement": "reactivity (detection)", "setting": "IMP-11", "result": "Detected"},
      {"measurement": "reactivity (detection)", "setting": "VIM-13", "result": "Detected"},
      {"measurement": "reactivity (detection)", "setting": "OXA-58 [6]", "result": "Detected"},
      {"measurement": "reactivity (detection)", "setting": "OXA-23", "result": "Detected"}
    ]}
  ]
}
